Experiments:
Btk = Btk (Homo sapiens, UniProt Q06187); assay: Btk in vitro inhibitory activity, acellular TR-FRET kinase assay; type: biochemical; settings: read-out: Btk IC50 (Efficacy); note: 1 µM peptide substrate
Protocol: Btk kinase activity was determined using a time-resolved fluorescence resonance energy transfer (TR-FRET) methodology. Measurements were performed in a reaction volume of 50 μL using 96-well assay plates. […] The TR-FRET signal was measured on a multimode plate reader with an excitation wavelength (λEx) of 330 nm and detection wavelengths (λEm) of 615 and 665 nm. Activity was determined by the ratio of the fluorescence at 665 nm to that at 615 nm. For each compound, enzyme activity was measured at various concentrations of compound. Negative control reactions were performed in the absence of inhibitor in replicates of six, and two no-enzyme controls were used to determine baseline fluorescence levels. IC50s were obtained using the program Batch Ki (Kuzmic et al. (2000), Anal. Biochem. 286:45-50).

[1] = test system: rat basophilic leukemia cells (RBL-2H3); settings: mast cells treated with Btk inhibitor; cited from earlier work

Btk, sequence (Q06187 whole entry): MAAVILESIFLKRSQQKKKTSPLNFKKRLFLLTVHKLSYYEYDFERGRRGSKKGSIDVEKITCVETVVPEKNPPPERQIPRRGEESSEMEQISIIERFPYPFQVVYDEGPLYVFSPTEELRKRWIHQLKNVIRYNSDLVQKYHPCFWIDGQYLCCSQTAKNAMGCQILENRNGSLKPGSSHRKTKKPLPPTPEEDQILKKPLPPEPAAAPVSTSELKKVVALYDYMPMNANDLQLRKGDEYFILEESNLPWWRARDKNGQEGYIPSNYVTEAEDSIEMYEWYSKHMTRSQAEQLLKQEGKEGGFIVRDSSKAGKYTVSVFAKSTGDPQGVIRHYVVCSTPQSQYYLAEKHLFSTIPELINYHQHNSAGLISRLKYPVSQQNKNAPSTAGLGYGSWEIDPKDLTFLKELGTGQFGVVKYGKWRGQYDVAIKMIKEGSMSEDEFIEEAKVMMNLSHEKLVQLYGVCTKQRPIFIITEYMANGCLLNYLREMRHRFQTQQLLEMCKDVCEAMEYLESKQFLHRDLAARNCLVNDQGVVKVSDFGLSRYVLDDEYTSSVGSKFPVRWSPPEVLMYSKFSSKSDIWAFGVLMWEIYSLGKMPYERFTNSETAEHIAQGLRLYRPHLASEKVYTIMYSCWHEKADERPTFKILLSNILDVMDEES

Row | IC50 (Btk) [nM] | SMILES | release of histamine reduced [1]
1 | < 100 | Nc1cccc(Nc2ncc(NC(=O)c3cc(NC(=O)c4cccc(C(F)(F)F)c4)ccc3F)cn2)c1 [Example 34] | 
2 | < 100 | Cc1ccc(NC(=O)c2ccc(C(F)(F)F)cc2)cc1C(=O)Nc1cnc(Nc2cccc(N)c2)nc1 [Example 26] | 
3 | < 100 | C=CS(=O)(=O)Nc1cccc(Nc2ncc(NC(=O)c3cc(NC(=O)c4cccc(C(F)(F)F)c4)ccc3C)cn2)c1 [Example 3] | 
4 | < 100 | C=CC(=O)Nc1cccc(Nc2ncc(NC(=O)c3cc(NC(=O)c4cccc(Cl)c4)ccc3C)cn2)c1 [Example 15] | 
5 | 100 to 1000 | Cc1ccc(NC(=O)c2cccc(F)c2)cc1C(=O)Nc1cnc(Nc2cccc(N)c2)nc1 [Example 28] | 
6 | < 100 | Cc1ccc(NC(=O)c2ccc3c(c2)OC(F)(F)O3)cc1C(=O)Nc1cnc(Nc2cccc(N)c2)nc1 [Example 25] | 
7 | < 100 | C=CC(=O)NCC(=O)Nc1cccc(Nc2ncc(NC(=O)c3cc(NC(=O)c4cccc(C(F)(F)F)c4)ccc3C)cn2)c1 [Example 4] | 
8 | < 100 | C=CC(=O)Nc1cccc(Nc2ncc(NC(=O)c3cc(NC(=O)c4cc(OC)cc(OC)c4)ccc3C)cn2)c1 [Example 12] | 
9 | < 100 | C=CC(=O)Nc1cccc(Nc2ncc(NC(=O)c3cc(NC(=O)c4cccc(C(F)(F)F)c4)ccc3F)cn2)c1 [Example 7] | 
10 | 100 to 1000 | C=CC(=O)Nc1cccc(Nc2ncc(NC(=O)c3cc(NC(=O)C4CC4)ccc3C)cn2)c1 [Example 19] | 
11 | < 100 | C=CC(=O)Nc1cccc(Nc2ncc(NC(=O)c3cc(NC(=O)c4ccc5c(c4)OC(F)(F)O5)ccc3C)cn2)c1 [Example 13] | 
12 | < 100 | Cc1ccc(NC(=O)c2cccc(Cl)c2)cc1C(=O)Nc1cnc(Nc2cccc(N)c2)nc1 [Example 27] | 
13 | 100 to 1000 | C=CC(=O)Nc1cccc(Nc2ncc(NC(=O)c3cc(NC(=O)CC)ccc3C)cn2)c1 [Example 10] | 
14 | 100 to 1000 | C=CC(=O)Nc1cccc(Nc2ncc(NC(=O)c3cc(NC(=O)c4cnoc4C)ccc3C)cn2)c1 [Example 17] | 
15 | < 100 | C/C=C/C(=O)Nc1cccc(Nc2ncc(NC(=O)c3cc(NC(=O)c4cccc(C(F)(F)F)c4)ccc3C)cn2)c1 [Example 2] | 
16 | < 100 | C=CC(=O)Nc1cccc(Nc2ncc(NC(=O)c3ccccc3C)cn2)c1 [Example 9] | 
17 | < 100 | COc1cc(OC)cc(C(=O)Nc2ccc(C)c(C(=O)Nc3cnc(Nc4cccc(N)c4)nc3)c2)c1 [Example 24] | 
18 | 100 to 1000 | Cc1ccc(NC(=O)/C=C/c2ccccc2)cc1C(=O)Nc1cnc(Nc2cccc(N)c2)nc1 [Example 37] | 

Row | IC50 (Btk) [nM] | SMILES | release of histamine reduced [1]
19 | < 100 | C=CC(=O)Nc1cccc(Nc2ncc(NC(=O)c3cc(NC(=O)c4cccc(C(F)(F)F)c4)ccc3Cl)cn2)c1 [Example 6] | 
20 | < 100 | Cc1ccc(NC(=O)c2cc(Cl)cc(C(F)(F)F)c2)cc1C(=O)Nc1cnc(Nc2cccc(N)c2)nc1 [Example 21] | 
21 | < 100 | Nc1cccc(Nc2ncc(NC(=O)c3cc(NC(=O)c4cccc(C(F)(F)F)c4)ccc3Cl)cn2)c1 [Example 33] | 
22 | < 100 | Cc1ccc(NC(=O)c2cccc(N(C)C)c2)cc1C(=O)Nc1cnc(Nc2cccc(N)c2)nc1 [Example 30] | 
23 | < 100 | C=CC(=O)Nc1cccc(Nc2ncc(NC(=O)c3cccc(NC(=O)c4cccc(C(F)(F)F)c4)c3)cn2)c1 [Example 8] | 
24 | 100 to 1000 | Cc1ccc(NC(=O)c2cnoc2C)cc1C(=O)Nc1cnc(Nc2cccc(N)c2)nc1 [Example 29] | 
25 | < 100 | C=CC(=O)Nc1cccc(Nc2ncc(NC(=O)c3cc(NC(=O)c4cccc(F)c4)ccc3C)cn2)c1 [Example 16] | 
26 | < 100 | C=CC(=O)Nc1cccc(Nc2ncc(NC(=O)c3cc(NC(=O)c4ccc(C(F)(F)F)cc4)ccc3C)cn2)c1 [Example 14] | 
27 | < 100 | Cc1ccc(NC(=O)Nc2cccc(C(F)(F)F)c2)cc1C(=O)Nc1cnc(Nc2cccc(N)c2)nc1 [Example 35] | 
28 | 100 to 1000 | C=CC(=O)N(C(=O)C=C)c1cccc(Nc2ncc(NC(=O)c3cc(NC(=O)c4cccc(C(F)(F)F)c4)ccc3C)cn2)c1 [Example 5] | 
29 |  | C/C(O)=C(\C#N)C(=O)Nc1cc(Br)ccc1Br [LFM-A13] | 20-25%
30 | 100 to 1000 | Nc1cccc(Nc2ncc(NC(=O)c3cccc(NC(=O)c4cccc(C(F)(F)F)c4)c3)cn2)c1 [Example 32] | 
31 | < 100 | C=CC(=O)Nc1cccc(Nc2ncc(NC(=O)c3cc(NC(=O)c4ccc5ccccc5c4)ccc3C)cn2)c1 [Example 11] | 
32 | 1000 to 10000 | Cc1ccc(NC(=O)C2CC2)cc1C(=O)Nc1cnc(Nc2cccc(N)c2)nc1 [Example 31] | 
33 | < 100 | Cc1ccc(NC(=O)c2ccc3ccccc3c2)cc1C(=O)Nc1cnc(Nc2cccc(N)c2)nc1 [Example 23] | 
34 | 1000 to 10000 | CCC(=O)Nc1ccc(C)c(C(=O)Nc2cnc(Nc3cccc(N)c3)nc2)c1 [Example 22] | 
35 | < 100 | Cc1ccc(NC(=O)c2cccc(C(F)(F)F)c2)cc1C(=O)Nc1cnc(Nc2cccc(N)c2)nc1 [Example 20] | 
36 | < 100 | C=CC(=O)Nc1cccc(Nc2ncc(NC(=O)c3cc(NC(=O)c4cccc(N(C)C)c4)ccc3C)cn2)c1 [Example 18] | 

From patent US9782406B2, “Kinase inhibitor and method for treatment of related diseases” (PEKING UNIVERSITY SHENZHEN GRADUATE SCHOOL, priority 2011, dated 2017)
